# Measured values from patent EP1642577A1, “Derivatives of aryl (or heteroaryl) azolylcarbinols for the treatment of central neuropathic pain” (Laboratorios Dr. Esteve S.A., priority 2004, dated 2006).
# System: Rats operated on lnfraorbital nerve
# Test: Rats operated on infraorbital nerve (ligature): response/nociceptive threshold measured as aversive reactions
# Type: in vivo
# Source text: Figures 1 and 2: Refering to example 7 they show the high efficacy of Cizolirtine in a model for the central neuropathic pain, the ligature of the infraorbital nerve.
# Rats operated on lnfraorbital nerve
# Rats were operated placing a ligature around the infraorbital nerve on one side. Following this operation the response threshold in (g) is reduced considerably if comparing the ipsilateral and contralateral side to the response pre ligature (Fig. 2) measured as aversive reactions. […] Saline produced no modification of the nociceptive threshold.
compound,measurement,setting,value
"CN(C)CCOC(c1ccccc1)c1ccnn1C (racemic) [Cizolirtine, (±)-5-{α-[2-(dimethylamino)ethoxy]benzyl}-1-methyl-1H-pirazole]",nociceptive threshold (%),"i.p., 80 mg/kg, ipsilateral side, rats with ligature around the infraorbital nerve, Fig. 1",strong inducement of the nociceptive threshold
same,"efficacy in a model for the central neuropathic pain, the ligature of the infraorbital nerve","legend of Figures 1 and 2, referring to example 7",high efficacy
